The values that follow come from publication PMC8487040, “Detection of juvenile hormone agonists by a new reporter gene assay using yeast expressing Drosophila methoprene‐tolerant” (FEBS Open Bio, 2021).

This assay has as its target T1, Met–Tai (D. melanogaster Met co-expressed with Tai) (Drosophila melanogaster, UniProt Q9VYW2, T103P).
T1 construct: full-length Met ORF (codon 103 CCC, Pro); heterodimer; with Taiman
Briefly: yeast lacZ reporter gene assay (beta-galactosidase, ONPG). In kind it is cell-based. An excerpt:
yeast lacZ reporter gene assay (beta-galactosidase, ONPG) on Met–Tai (D. melanogaster Met co-expressed with Tai)

Like-named read-outs stand apart in the source and are kept apart here.

T1 sequence (Q9VYW2 1-716 T103P): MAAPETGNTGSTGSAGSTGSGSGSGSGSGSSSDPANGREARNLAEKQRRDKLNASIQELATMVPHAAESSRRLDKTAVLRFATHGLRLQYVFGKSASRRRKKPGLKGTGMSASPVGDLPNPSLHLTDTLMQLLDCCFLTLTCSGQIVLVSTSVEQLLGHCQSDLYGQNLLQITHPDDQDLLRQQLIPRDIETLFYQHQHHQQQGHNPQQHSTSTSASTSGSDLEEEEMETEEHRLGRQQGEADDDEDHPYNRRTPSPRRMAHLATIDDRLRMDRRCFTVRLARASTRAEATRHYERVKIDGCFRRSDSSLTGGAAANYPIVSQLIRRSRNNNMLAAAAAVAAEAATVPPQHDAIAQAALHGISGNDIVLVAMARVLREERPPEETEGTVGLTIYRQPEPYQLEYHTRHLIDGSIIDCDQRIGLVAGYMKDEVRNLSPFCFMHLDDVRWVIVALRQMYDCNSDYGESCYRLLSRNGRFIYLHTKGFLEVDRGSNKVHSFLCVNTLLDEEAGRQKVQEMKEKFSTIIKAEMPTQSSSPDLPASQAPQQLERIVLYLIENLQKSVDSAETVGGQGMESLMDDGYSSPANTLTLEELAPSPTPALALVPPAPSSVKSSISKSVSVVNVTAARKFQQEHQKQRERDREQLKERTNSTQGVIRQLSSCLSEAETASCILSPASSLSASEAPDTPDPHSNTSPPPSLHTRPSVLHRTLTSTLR
T1 sequence (Q9VLD9 1-2026 partner): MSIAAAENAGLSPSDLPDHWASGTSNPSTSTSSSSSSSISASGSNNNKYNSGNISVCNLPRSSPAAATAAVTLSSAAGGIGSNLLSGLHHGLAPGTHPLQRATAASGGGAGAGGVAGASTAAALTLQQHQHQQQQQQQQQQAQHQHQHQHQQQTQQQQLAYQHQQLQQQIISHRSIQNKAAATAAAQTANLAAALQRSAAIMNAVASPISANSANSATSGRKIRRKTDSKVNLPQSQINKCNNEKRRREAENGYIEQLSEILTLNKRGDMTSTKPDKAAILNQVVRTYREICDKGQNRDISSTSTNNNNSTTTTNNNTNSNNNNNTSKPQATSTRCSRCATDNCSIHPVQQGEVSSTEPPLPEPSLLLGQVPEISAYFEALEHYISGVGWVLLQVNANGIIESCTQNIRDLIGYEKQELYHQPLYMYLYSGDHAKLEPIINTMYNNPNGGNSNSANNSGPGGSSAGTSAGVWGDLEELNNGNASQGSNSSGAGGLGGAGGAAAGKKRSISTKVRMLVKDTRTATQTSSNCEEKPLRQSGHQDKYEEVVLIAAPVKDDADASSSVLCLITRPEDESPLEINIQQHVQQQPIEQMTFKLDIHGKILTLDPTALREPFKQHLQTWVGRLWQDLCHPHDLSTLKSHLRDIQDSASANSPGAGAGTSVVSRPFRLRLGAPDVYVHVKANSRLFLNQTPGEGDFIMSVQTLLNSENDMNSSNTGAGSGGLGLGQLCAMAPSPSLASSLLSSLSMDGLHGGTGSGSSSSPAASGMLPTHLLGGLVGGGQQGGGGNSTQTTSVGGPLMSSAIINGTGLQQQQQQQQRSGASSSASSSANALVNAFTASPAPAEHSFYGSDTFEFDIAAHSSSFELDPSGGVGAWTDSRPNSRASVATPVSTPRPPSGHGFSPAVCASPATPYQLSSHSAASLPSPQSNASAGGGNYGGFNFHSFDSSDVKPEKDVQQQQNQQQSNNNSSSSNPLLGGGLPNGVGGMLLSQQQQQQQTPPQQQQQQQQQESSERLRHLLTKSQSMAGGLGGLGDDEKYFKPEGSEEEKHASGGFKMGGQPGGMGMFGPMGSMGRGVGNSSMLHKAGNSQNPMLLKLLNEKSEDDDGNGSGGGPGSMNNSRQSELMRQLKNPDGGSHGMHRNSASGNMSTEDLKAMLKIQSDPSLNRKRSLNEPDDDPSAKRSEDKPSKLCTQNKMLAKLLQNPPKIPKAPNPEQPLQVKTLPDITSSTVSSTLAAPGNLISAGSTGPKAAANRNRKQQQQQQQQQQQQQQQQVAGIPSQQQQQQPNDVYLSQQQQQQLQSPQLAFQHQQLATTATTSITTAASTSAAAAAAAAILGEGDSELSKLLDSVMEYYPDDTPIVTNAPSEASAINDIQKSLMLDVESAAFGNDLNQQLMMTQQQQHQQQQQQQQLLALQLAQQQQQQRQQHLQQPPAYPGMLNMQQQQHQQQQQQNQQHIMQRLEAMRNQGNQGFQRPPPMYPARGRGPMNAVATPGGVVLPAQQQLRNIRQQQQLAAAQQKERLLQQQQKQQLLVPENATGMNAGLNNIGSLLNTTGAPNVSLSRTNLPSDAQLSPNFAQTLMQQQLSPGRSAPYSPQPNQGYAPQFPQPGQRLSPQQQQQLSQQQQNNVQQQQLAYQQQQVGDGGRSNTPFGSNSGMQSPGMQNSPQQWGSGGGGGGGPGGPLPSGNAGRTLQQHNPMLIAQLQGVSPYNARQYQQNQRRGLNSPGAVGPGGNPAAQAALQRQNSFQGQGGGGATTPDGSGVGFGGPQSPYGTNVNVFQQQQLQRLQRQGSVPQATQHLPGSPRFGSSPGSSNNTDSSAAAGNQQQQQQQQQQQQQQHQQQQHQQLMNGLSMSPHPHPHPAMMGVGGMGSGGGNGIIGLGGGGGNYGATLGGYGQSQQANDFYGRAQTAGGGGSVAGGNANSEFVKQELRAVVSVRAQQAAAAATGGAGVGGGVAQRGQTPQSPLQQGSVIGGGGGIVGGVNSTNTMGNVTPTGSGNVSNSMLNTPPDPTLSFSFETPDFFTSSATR

The EC50 is the concentration that produces a half-maximal response. Higher therefore signals a less potent agent. As for `CCOC(=O)/C=C(C)/C=C/C[C@@H](C)CCCC(C)C` [(S)‐hydroprene], the EC50 came to 570 ± 150 nM.
Still for that read-out and setting: as for `CCOC(=O)NCCOc1ccc(Oc2ccccc2)cc1` [Fenoxycarb], the figure is 3 ± 1 nM; as for `CC/C(=C\C(=O)OC)CC/C=C(\CC)CC[C@H]1O[C@@]1(C)CC` [JH 0], 213 ± 14 nM.
The same measure, in the same setting: for `COC(=O)/C=C(\C)CC/C=C(\C)CC[C@H]1OC1(C)C` [JH III] the value was 62 ± 5 nM; for `CC[C@]1(C)O[C@@H]1CC/C(C)=C/CC/C(C)=C/C(=O)OC` [JH II], 50 ± 17 nM; for `CC/C(=C\CC/C(C)=C/C(=O)OC)CC[C@H]1O[C@@]1(C)CC` [JH I], 65 ± 11 nM.
For `COC(C)(C)CCCC(C)C/C=C/C(C)=C/C(=O)OC(C)C` (stereo not drawn) [Methoprene], the EC50 was 1100 ± 230 nM.
Same read-out and setting: as for `COC(=O)/C=C(\C)CC/C=C(\C)CCC=C(C)C` [Methyl farnesoate], the figure is 160 ± 7 nM.
Turning to `CC(COc1ccc(Oc2ccccc2)cc1)Oc1ccccn1` (stereo not drawn) [Pyriproxyfen], the concentration giving a half-maximal response (EC50) (agonist, 30 °C, 18 h, Tai co-expressed, BmkJHRE x 2 reporter) worked out at 87 ± 12 nM.
